From patent US8846659B2 (priority 2010, dated 2014)
Counter-ions that a name gives are not always drawn.

Tests used:
[1] = test system: recombinant NL-Rluc virus; test: Inhibition of HIV replication: susceptibility of recombinant NL-Rluc virus to compounds; type: cell-based; details: Human immunodeficiency virus 1, read-out: Activity (EC50, 50% effective concentration)
HIV integrase = HIV integrase (Human immunodeficiency virus type 1 group M subtype B, UniProt P12497); test: HIV-integrase inhibition activity: inhibition of [3H]BMS-641493 binding to enzyme-SPA bead complexes; details: competition with [3H]BMS-641493, enzyme-SPA bead complexes; read-out: Activity (Ki toward integrase)
Source text: HIV-Integrase Inhibition Activity.
Radiolabeled integrase inhibitor, BMS-641493 was used as a known reference ligand to determine the binding constants towards the integrase enzyme of the compounds described in this invention using a method similar to that described in; Dicker et al. J. Biological Chem. 2007, 282, 31186-31196; Dicker et al. J. Biol. Chem. 2008, 283, 23599-23609 and Dicker et al. Biochemistry 2008, 47, 13481-13488. BMS-641493 is a known active-site binding inhibitor as it can be competed […] for [3H]BMS-641493 were determined from fitting data to a saturation binding curve using Graphpad Prism, V4.01. The Ki measurement toward integrase was made by measuring the inhibition of binding of [3H]BMS-641493 to enzyme-SPA bead complexes in the presence of serial dilutions of the test compounds. The Ki value was determined from the [3H]BMS-641493 Kd and the inhibition binding curve using Graphpad Prism, V4.03.

Compound	EC50 [1] [µM]	Ki (HIV integrase) [µM]
CN(C)C(=O)C(=O)NC12CCC(CC1)Cn1c2nc(-c2ncc(Cc3ccc(F)cc3)[nH]2)c(O)c1=O [Example 2, N′-(2-(4-(4-Fluorobenzyl)-1H-imidazol-2-yl)-3-hydroxy-4-oxo-6,7,8,9-tetrahydro-7,10-ethanopyrimido[1,2-a]azepin-10(4H)-yl)-N,N-dimethylethanediamide]	0.005	0.021
Cc1cc(C(=O)NC23CCC(CC2)Cn2c3nc(-c3ncc(Cc4ccc(F)cc4)[nH]3)c(O)c2=O)no1 [Example 4, N-(2-(4-(4-Fluorobenzyl)-1H-imidazol-2-yl)-3-hydroxy-4-oxo-6,7,8,9-tetrahydro-7,10-ethanopyrimido[1,2-a]azepin-10(4H)-yl)-5-methyl-1,2-oxazole-3-carboxamide]	0.008	0.021
CN(C)C(=O)C(=O)NC12CCC(CC1)Cn1c2nc(-c2nnc(Cc3ccc(F)cc3)o2)c(O)c1=O [Example 7, N′-(2-(5-(4-Fluorobenzyl)-1,3,4-oxadiazol-2-yl)-3-hydroxy-4-oxo-6,7,8,9-tetrahydro-7,10-ethanopyrimido[1,2-a]azepin-10(4H)-yl)-N,N-dimethylethanediamide]	0.002	0.222
O=C(NC12CCC(CC1)Cn1c2nc(-c2ncc(Cc3ccc(F)cc3)[nH]2)c(O)c1=O)C(=O)N1CCCC1 [Example 3, N-(2-(4-(4-Fluorobenzyl)-1H-imidazol-2-yl)-3-hydroxy-4-oxo-6,7,8,9-tetrahydro-7,10-ethanopyrimido[1,2-a]azepin-10(4H)-yl)-2-oxo-2-(pyrrolidin-1-yl)acetamide]	0.018	0.122
Cc1cc(Cc2cnc(-c3nc4n(c(=O)c3O)CC3CCC4(NC(=O)c4cccnc4)CC3)[nH]2)ccc1F [Example 11, N-[2-[4-[(4-Fluoro-3-methylphenyl)methyl]-1H-imidazol-2-yl]-6,7,8,9-tetrahydro-3-hydroxy-4-oxo-7,10-ethanopyrimido[1,2-a]azepin-10(4H)-yl]-3-pyridinecarboxamide trifluoroacetate salt]	0.024	0.019
Cc1cc(Cc2cnc(-c3nc4n(c(=O)c3O)CC3CCC4(NC(=O)C(=O)N(C)C)CC3)[nH]2)ccc1F [Example 10, N′-[2-[4-[(4-Fluoro-3-methylphenyl)methyl]-1H-imidazol-2-yl]-6,7,8,9-tetrahydro-3-hydroxy-4-oxo-7,10-ethanopyrimido[1,2-a]azepin-10(4H)-yl]-N,N-dimethyl-ethanediamide trifluoroacetate salt]	0.006	0.009
NC12CCC(CC1)Cn1c2nc(-c2ncc(Cc3ccc(F)cc3)[nH]2)c(O)c1=O [Example 1, 10-Amino-2-[4-[(4-fluorophenyl)methyl]-1H-imidazol-2-yl]-7,8,9,10-tetrahydro-3-hydroxy-7,10-ethanopyrimido[1,2-a]azepin-4(6H)-one]	0.021	–
NC12CCC(CC1)Cn1c2nc(-c2ncc(Cc3ccc(F)cc3)s2)c(O)c1=O [Example 5]	0.06	3.88
Cc1cc(Cc2cnc(-c3nc4n(c(=O)c3O)CC3CCC4(NC(=O)c4ccn(C)n4)CC3)[nH]2)ccc1F [Example 18, N-[2-[4-[(4-Fluoro-3-methylphenyl)methyl]-1H-imidazol-2-yl]-6,7,8,9-tetrahydro-3-hydroxy-4-oxo-7,10-ethanopyrimido[1,2-a]azepin-10(4H)-yl]-1-methyl-1H-pyrazole-3-carboxamide]	0.005	0.016
CN(C)C(=O)C(=O)NC12CCC(CC1)Cn1c2nc(-c2nnc(Cc3ccc(F)cc3)s2)c(O)c1=O [Example 16, N′-[2-[5-[(4-Fluorophenyl)methyl]-1,3,4-thiadiazol-2-yl]-6,7,8,9-tetrahydro-3-hydroxy-4-oxo-7,10-ethanopyrimido[1,2-a]azepin-10(4H)-yl]-N,N-dimethylethanediamide]	0.021	1.47
CN(C)C(=O)C(=O)N(C)C12CCC(CC1)Cn1c2nc(-c2ncc(Cc3ccc(F)cc3)[nH]2)c(O)c1=O [Example 13, N-[2-[4-[(4-Fluorophenyl)methyl]-1H-imidazol-2-yl]-6,7,8,9-tetrahydro-3-hydroxy-4-oxo-7,10-ethanopyrimido[1,2-a]azepin-10(4H)-yl]-N,N′,N′-trimethyl-ethanediamide trifluoroacetate salt]	0.002	0.013
CN(C)C(=O)C(=O)NC12CCC(CC1)Cn1c2nc(-c2ncc(Cc3ccc(F)cc3)o2)c(O)c1=O [Example 8, N′-(4-(5-(4-Fluorobenzyl)-1,3-oxazol-2-yl)-3-hydroxy-4-oxo-6,7,8,9-tetrahydro-7,10-ethanopyrimido[1,2-a]azepin-10(4H)-yl)-N,N-dimethylethanediamide]	0.0004	0.115
CC(=O)N(C)C1(C(=O)NC23CCC(CC2)Cn2c3nc(-c3ncc(Cc4ccc(F)c(C)c4)[nH]3)c(O)c2=O)CC1 [Example 15, 1-(Acetylmethylamino)-N-[2-[4-[(4-fluoro-3-methylphenyl)methyl]-1H-imidazol-2-yl]-6,7,8,9-tetrahydro-3-hydroxy-4-oxo-7,10-ethanopyrimido[1,2-a]azepin-10(4H)-yl]-cyclopropanecarboxamide trifluoroacetate salt]	0.053	0.057
Cc1cc(Cc2c[nH]c(-c3nc4n(c(=O)c3O)CC3CCC4(NC(=O)C(C)(C)n4cncn4)CC3)n2)ccc1F [Example 14, N-[2-[4-[(4-Fluoro-3-methylphenyl)methyl]-1H-imidazol-2-yl]-6,7,8,9-tetrahydro-3-hydroxy-4-oxo-7,10-ethanopyrimido[1,2-a]azepin-10(4H)-yl]-alpha,alpha-dimethyl-1H-1,2,4-triazole-1-acetamide trifluoroacetate salt]	0.007	0.041
CN(C)C(=O)C(=O)NC12CCC(CC1)Cn1c2nc(-c2ncc(Cc3ccc(F)cc3)s2)c(O)c1=O [Example 6, N′-(2-(5-(4-Fluorobenzyl)-1,3-thiazol-2-yl)-3-hydroxy-4-oxo-6,7,8,9-tetrahydro-7,10-ethanopyrimido[1,2-a]azepin-10(4H)-yl)-N,N-dimethylethanediamide]	0.001	0.4
CN(C)C(=O)C(=O)NC12CCC(CC1)Cn1c2nc(-c2ncn(Cc3ccc(F)cc3)n2)c(O)c1=O [Example 9, N′-[2-[1-[(4-Fluorophenyl)methyl]-1H-1,2,4-triazol-3-yl]-6,7,8,9-tetrahydro-3-hydroxy-4-oxo-7,10-ethanopyrimido[1,2-a]azepin-10(4H)-yl]-N,N-dimethylethanediamide]	–	1.07
Cc1cc(Cc2cnc(-c3nc4n(c(=O)c3O)CC3CCC4(NC(=O)c4cccnn4)CC3)[nH]2)ccc1F [Example 12, N-[2-[4-[(4-Fluoro-3-methylphenyl)methyl]-1H-imidazol-2-yl]-6,7,8,9-tetrahydro-3-hydroxy-4-oxo-7,10-ethanopyrimido[1,2-a]azepin-10(4H)-yl]-3-pyridazinecarboxamide trifluoroacetate salt]	0.008	0.013
Cc1cc(Cc2c[nH]c(-c3nc4n(c(=O)c3O)CC3CCC4(N(C)C(=O)C(=O)N(C)C)CC3)n2)ccc1F [Example 17, N-[2-[4-[(4-Fluoro-3-methylphenyl)methyl]-1H-imidazol-2-yl]-6,7,8,9-tetrahydro-3-hydroxy-4-oxo-7,10-ethanopyrimido[1,2-a]azepin-10(4H)-yl]-N,N′,N′-trimethyl-ethanediamide trifluoroacetate salt]	0.005	0.01
